In patent US10696615B2, “Prenylated hydroxystilbenes” (The University of Sydney, priority 2011, dated 2020):

Experiments:
Type in all cases: cell-based, human
M14 = experiment: NCI in vitro cancer screen, Melanoma; conditions: M14
T-47D = experiment: NCI in vitro cancer screen, Breast Cancer
786-0 = experiment: NCI in vitro cancer screen, Renal Cancer; conditions: 786-0
NCI-H322M = experiment: NCI in vitro cancer screen, Non-Small Cell Lung Cancer
HCC-2998 = experiment: NCI in vitro cancer screen, Colon Cancer; conditions: HCC-2998
COLO 205 = experiment: NCI in vitro cancer screen, Colon Cancer; conditions: COLO 205
MDA-MB-435 = experiment: NCI in vitro cancer screen, Melanoma; conditions: MDA-MB-435
RXF-393 = experiment: NCI in vitro cancer screen, Renal Cancer; conditions: RXF-393
ADR-RES (NCI/ADR-RES) = experiment: NCI in vitro cancer screen, Ovarian Cancer
MALME-3M = experiment: NCI in vitro cancer screen, Melanoma
HCT-15 = experiment: NCI in vitro cancer screen, Colon Cancer; conditions: HCT-15
PC-3 = experiment: NCI in vitro cancer screen, Prostate Cancer; conditions: PC-3
SN12C = experiment: NCI in vitro cancer screen, Renal Cancer
MOLT-4 = experiment: NCI in vitro cancer screen, Leukemia; conditions: MOLT-4
NCI-H522 = experiment: NCI in vitro cancer screen, Non-Small Cell Lung Cancer; conditions: NCI-H522
SNB-75 = experiment: NCI in vitro cancer screen, CNS Cancer; conditions: Homo sapiens, SNB-75
UO-31 = experiment: NCI in vitro cancer screen, Renal Cancer; conditions: UO-31
LOX IMVI = experiment: NCI in vitro cancer screen, Melanoma
SF-295 = experiment: NCI in vitro cancer screen, CNS Cancer; conditions: SF-295
K-562 = experiment: NCI in vitro cancer screen, Leukemia; conditions: K-562
SK-MEL-2 = experiment: NCI in vitro cancer screen, Melanoma; conditions: SK-MEL-2
NCI-H460 = experiment: NCI in vitro cancer screen, Non-Small Cell Lung Cancer; conditions: NCI-H460
HL-60 (TB) = experiment: NCI in vitro cancer screen, Leukemia; conditions: HL-60 (TB)
ACHN = experiment: NCI in vitro cancer screen, Renal Cancer
RPMI-8226 = experiment: NCI in vitro cancer screen, Leukemia; conditions: RPMI-8226
A498 = experiment: NCI in vitro cancer screen, Renal Cancer; conditions: A498
[1] = system: MDA-MB-231 (MDA-MB-231/ATCC); experiment: NCI in vitro cancer screen, Breast Cancer; conditions: MDA-MB-231
UACC-62 = experiment: NCI in vitro cancer screen, Melanoma; conditions: UACC-62
A549/ATCC = experiment: NCI in vitro cancer screen, Non-Small Cell Lung Cancer
SK-OV-3 = experiment: NCI in vitro cancer screen, Ovarian Cancer; conditions: SK-OV-3
[2] = Homo sapiens, read-out: LC50 (the source's name)

## COc1cc(O)cc(/C=C/c2ccc(O)c(O)c2)c1CC=C(C)C [USYDS9, (E)-2-(3-methyl-2-buten-1-yl)-3′,4′,5-trihydroxy-3-methoxystilbene]
M14; Homo sapiens
  GI50: 300 nM
M14; [2]
  CC50: > 100 µM
M14
  TGI: 5.69 µM
T-47D
  TGI: 36.9 µM
T-47D; Homo sapiens, T47D
  GI50: 4.78 µM
T-47D; Homo sapiens, T47D, read-out: LC50 (the source's name)
  CC50: > 100 µM
786-0
  TGI: 18.7 µM
786-0; Homo sapiens
  GI50: 2990 nM
  LC50 (50% net cell kill): > 100 µM
NCI-H322M
  TGI: >100 µM
NCI-H322M; Homo sapiens
  GI50: 760 nM
  LC50 (50% lethal concentration): > 100 µM
HCC-2998
  TGI: 21.2 µM
HCC-2998; Homo sapiens
  GI50: 4.18 µM
HCC-2998; [2]
  CC50: > 100 µM
COLO 205
  TGI: 83.6 µM
COLO 205; Homo sapiens
  GI50: 21.7 µM
COLO 205; [2]
  CC50: > 100 µM
MDA-MB-435; Homo sapiens
  GI50: 130 nM
MDA-MB-435; [2]
  CC50: > 100 µM
MDA-MB-435
  TGI: 0.42 µM
RXF-393; Homo sapiens
  GI50: 230 nM
RXF-393; [2]
  CC50: > 100 µM
RXF-393
  TGI: 0.63 µM
ADR-RES (NCI/ADR-RES); ADR-RES
  TGI: 3.69 µM
ADR-RES (NCI/ADR-RES); Homo sapiens, NCI/ADR-RES
  GI50: 290 nM
ADR-RES (NCI/ADR-RES); Homo sapiens, NCI/ADR-RES, read-out: LC50 (the source's name)
  CC50: > 100 µM
MALME-3M; Homo sapiens, Malme-3M
  GI50: 620 nM
MALME-3M; Homo sapiens, Malme-3M, read-out: LC50 (the source's name)
  CC50: > 100 µM
MALME-3M; MALME-3M
  TGI: >100 µM
HCT-15
  TGI: >100 µM
HCT-15; Homo sapiens
  GI50: 430 nM
HCT-15; [2]
  CC50: > 100 µM
PC-3; Homo sapiens
  GI50: 2920 nM
PC-3; [2]
  CC50: > 100 µM
PC-3
  TGI: >100 µM
SN12C
  TGI: 83.5 µM
SN12C; Homo sapiens
  GI50: 1760 nM
SN12C; [2]
  CC50: > 100 µM
MOLT-4; Homo sapiens
  GI50: 1270 nM
MOLT-4; [2]
  CC50: > 100 µM
MOLT-4
  TGI: 6.77 µM
NCI-H522; Homo sapiens
  GI50: 150 nM
NCI-H522; [2]
  CC50: 44.8 µM
NCI-H522
  TGI: 0.45 µM
SNB-75
  GI50: 240 nM
SNB-75; read-out: LC50 (the source's name)
  CC50: > 100 µM
UO-31; Homo sapiens
  GI50: 460 nM
UO-31; [2]
  CC50: > 100 µM
UO-31
  TGI: >100 µM
LOX IMVI
  TGI: 58.6 µM
LOX IMVI; Homo sapiens
  GI50: 640 nM
LOX IMVI; [2]
  CC50: > 100 µM
SF-295; Homo sapiens
  GI50: 2600 nM
SF-295; [2]
  CC50: > 100 µM
SF-295
  TGI: 20.5 µM
K-562; Homo sapiens, K562
  GI50: 330 nM
K-562; Homo sapiens, K562, read-out: LC50 (the source's name)
  CC50: > 100 µM
K-562
  TGI: 13.9 µM
SK-MEL-2; Homo sapiens
  GI50: 2170 nM
  LC50: > 100 µM
SK-MEL-2
  TGI: 12.1 µM
NCI-H460; Homo sapiens
  GI50: 470 nM
NCI-H460; [2]
  CC50: 75.7 µM
NCI-H460
  TGI: 10.3 µM
HL-60 (TB)
  TGI: 0.43 µM
HL-60 (TB); Homo sapiens
  GI50: 200 nM
HL-60 (TB); [2]
  CC50: 950 nM
ACHN
  TGI: >100 µM
ACHN; Homo sapiens
  GI50: 660 nM
ACHN; [2]
  CC50: > 100 µM
RPMI-8226; Homo sapiens
  GI50: 450 nM
RPMI-8226; [2]
  CC50: > 100 µM
RPMI-8226
  TGI: >100 µM
A498
  TGI: 53.5 µM
A498; Homo sapiens
  GI50: 10.3 µM
A498; [2]
  CC50: > 100 µM
[1]; Homo sapiens
  GI50: 380 nM
[1]; [2]
  CC50: > 100 µM
[1]
  TGI: 2.61 µM
UACC-62; Homo sapiens
  GI50: 3.22 µM
UACC-62; [2]
  CC50: > 100 µM
UACC-62
  TGI: 34.8 µM
A549/ATCC
  TGI: 41.5 µM
A549/ATCC; Homo sapiens
  GI50: 2620 nM
A549/ATCC; [2]
  CC50: > 100 µM
SK-OV-3; Homo sapiens
  GI50: 500 nM
SK-OV-3; [2]
  CC50: > 100 µM
SK-OV-3
  TGI: 5.12 µM
